≈ marks a conversion by molar mass, not a printed value. Values belong to the compound of their own block, whether it stands above or below them.
What was measured:
[1] = Drug metabolism in human hepatocytes treated with N-((1R,2S)-1-(3-chloro-4-cyanophenoxy)-1-(6-methoxypyridin-3-yl)propan-2-yl)-2,2-difluoropropanamide; format: ADME, cell-based, Hepatocyte
[2] = Drug metabolism in rat hepatocytes treated with N-((1R,2S)-1-(3-chloro-4-cyanophenoxy)-1-(6-methoxypyridin-3-yl)propan-2-yl)-2,2-difluoropropanamide; format: ADME, cell-based, Hepatocyte
Rattus norvegicus [3] = experiment: Antiinflammatory activity in streptococcal cell wall reactivation Lewis rat model assessed as reduction of joint swelling at 5 mg/kg administered once daily for 8 days by oral gavage starting 1 day prior to streptococcal cell wall challenge measured during 6 days post challenge relative to control; format: functional; design: scale not given: the % may be the effect or the level left
Rattus norvegicus [4] = experiment: Dose normalized AUC (0 to infinity) in Han-Wistar rat at 3.5 mg/kg, po; format: ADME, organism-based; details: in vivo
[5] = Terminal half life in Han-Wistar rat at 3.5 mg/kg, po; format: ADME, organism-based; details: in vivo, read-out: beta t1/2 (converted)
[6] = Tmax in Han-Wistar rat at 3.5 mg/kg, po; format: ADME, organism-based; details: in vivo
[7] = Volume of distribution at steady state in Han-Wistar rat at 0.9 mg/kg, iv; format: ADME, organism-based; details: in vivo, read-out: Vdss
[8] = biological target: T1, Mineralocorticoid receptor (Homo sapiens, UniProt P08235); experiment: Displacement of [3H]-aldosterone from human mineralocorticoid receptor LBD (729 to 984 residues) after 1 hr by scintillation proximity assay
T1 sequence (P08235 whole entry): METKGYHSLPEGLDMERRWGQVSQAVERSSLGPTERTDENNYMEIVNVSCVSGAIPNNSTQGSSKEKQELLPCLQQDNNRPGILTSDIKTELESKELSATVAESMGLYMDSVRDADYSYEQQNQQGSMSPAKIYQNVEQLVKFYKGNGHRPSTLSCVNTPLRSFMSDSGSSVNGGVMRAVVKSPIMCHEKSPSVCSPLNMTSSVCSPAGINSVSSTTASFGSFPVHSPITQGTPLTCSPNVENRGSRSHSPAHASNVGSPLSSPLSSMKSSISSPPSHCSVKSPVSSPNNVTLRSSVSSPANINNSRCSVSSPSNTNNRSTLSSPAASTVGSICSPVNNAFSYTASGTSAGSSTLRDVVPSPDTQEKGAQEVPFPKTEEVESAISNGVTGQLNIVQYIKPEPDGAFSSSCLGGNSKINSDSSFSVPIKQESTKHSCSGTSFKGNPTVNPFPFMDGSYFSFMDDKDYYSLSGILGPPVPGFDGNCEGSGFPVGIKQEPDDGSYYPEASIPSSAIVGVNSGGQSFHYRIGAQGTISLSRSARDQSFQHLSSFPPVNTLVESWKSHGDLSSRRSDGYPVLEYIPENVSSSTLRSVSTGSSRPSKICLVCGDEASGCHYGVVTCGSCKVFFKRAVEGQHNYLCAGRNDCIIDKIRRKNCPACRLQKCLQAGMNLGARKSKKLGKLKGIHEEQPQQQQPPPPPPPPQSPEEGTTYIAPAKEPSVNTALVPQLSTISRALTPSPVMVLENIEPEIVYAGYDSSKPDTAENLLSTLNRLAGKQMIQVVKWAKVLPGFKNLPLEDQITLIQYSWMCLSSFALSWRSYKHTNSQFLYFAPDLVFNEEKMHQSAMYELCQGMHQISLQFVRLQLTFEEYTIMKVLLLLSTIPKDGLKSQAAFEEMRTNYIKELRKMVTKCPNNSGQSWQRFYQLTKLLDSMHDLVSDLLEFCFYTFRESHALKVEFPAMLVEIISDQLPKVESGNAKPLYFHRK

[9] = Aqueous solubility of the compound; format: physicochemical; details: aqueous; read-out: solubility
[10] = Clearance in Han-Wistar rat at 0.9 mg/kg, iv; format: ADME, organism-based; details: in vivo
Estrogen receptor beta = Estrogen receptor beta (Homo sapiens, UniProt Q92731); experiment: Binding affinity to human ERbeta expressed in Sf9 cells by fluoligand binding-based fluorescence polarization method
Chain of Estrogen receptor beta (Q92731 whole entry): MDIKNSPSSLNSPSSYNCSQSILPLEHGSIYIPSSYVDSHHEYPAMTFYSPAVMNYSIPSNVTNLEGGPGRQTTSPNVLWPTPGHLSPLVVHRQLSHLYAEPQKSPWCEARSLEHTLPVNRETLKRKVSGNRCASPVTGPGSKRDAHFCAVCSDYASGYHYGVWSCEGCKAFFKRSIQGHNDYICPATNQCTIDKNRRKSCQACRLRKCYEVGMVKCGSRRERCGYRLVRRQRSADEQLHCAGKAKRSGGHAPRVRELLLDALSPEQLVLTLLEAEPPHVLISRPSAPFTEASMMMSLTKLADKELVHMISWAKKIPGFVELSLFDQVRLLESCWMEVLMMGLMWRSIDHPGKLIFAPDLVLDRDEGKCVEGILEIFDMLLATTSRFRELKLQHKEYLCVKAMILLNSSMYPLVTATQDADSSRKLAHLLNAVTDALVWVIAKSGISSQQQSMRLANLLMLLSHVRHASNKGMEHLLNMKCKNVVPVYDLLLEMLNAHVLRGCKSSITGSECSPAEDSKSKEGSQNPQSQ

[11] = biological target: T2, Glucocorticoid receptor (Homo sapiens) (UniProt P04150)
T2 sequence (whole entry): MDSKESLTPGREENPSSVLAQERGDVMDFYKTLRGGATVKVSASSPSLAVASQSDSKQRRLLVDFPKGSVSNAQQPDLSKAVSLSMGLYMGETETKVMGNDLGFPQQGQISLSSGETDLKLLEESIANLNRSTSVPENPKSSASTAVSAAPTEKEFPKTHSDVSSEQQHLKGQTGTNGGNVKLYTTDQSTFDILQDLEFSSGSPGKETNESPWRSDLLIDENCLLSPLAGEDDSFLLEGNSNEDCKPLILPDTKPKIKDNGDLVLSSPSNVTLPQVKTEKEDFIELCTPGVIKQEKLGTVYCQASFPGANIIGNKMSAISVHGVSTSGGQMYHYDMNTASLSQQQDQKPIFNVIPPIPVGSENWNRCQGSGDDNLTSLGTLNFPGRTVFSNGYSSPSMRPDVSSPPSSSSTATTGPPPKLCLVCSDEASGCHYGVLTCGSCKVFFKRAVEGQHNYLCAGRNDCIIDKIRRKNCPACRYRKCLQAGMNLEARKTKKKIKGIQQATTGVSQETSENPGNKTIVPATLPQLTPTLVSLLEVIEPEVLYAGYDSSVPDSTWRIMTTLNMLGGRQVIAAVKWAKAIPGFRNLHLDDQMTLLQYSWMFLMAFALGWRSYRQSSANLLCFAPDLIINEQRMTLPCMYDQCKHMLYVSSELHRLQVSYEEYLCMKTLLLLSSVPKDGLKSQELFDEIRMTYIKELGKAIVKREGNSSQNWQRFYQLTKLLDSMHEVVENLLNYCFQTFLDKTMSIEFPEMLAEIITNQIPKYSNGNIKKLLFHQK
Description: Transrepression of GR in cryopreserved human fetal osteoblasts assessed as inhibition of OPG mRNA expression after 4 hrs by RT-qPCR analysis

Rattus norvegicus [12] = experiment: Dose normalized Cmax in Han-Wistar rat at 3.5 mg/kg, po; format: ADME, organism-based; details: in vivo
Glucocorticoid receptor [13] = biological target: T3, Glucocorticoid receptor (Homo sapiens, UniProt P04150); details: hepatocytes, 18 h
T3 sequence (P04150 whole entry): T2 sequence (whole entry)
Description: Transactivation of GR in cryopreserved human primary hepatocytes assessed as upregulation of TAT mRNA expression level after 18 hrs by RT-qPCR analysis

Estrogen receptor = biological target: T4, Estrogen receptor (Homo sapiens, UniProt P03372); experiment: Binding affinity to human ERalpha expressed in Sf9 cells by fluoligand binding-based fluorescence polarization method
T4 sequence (P03372 whole entry): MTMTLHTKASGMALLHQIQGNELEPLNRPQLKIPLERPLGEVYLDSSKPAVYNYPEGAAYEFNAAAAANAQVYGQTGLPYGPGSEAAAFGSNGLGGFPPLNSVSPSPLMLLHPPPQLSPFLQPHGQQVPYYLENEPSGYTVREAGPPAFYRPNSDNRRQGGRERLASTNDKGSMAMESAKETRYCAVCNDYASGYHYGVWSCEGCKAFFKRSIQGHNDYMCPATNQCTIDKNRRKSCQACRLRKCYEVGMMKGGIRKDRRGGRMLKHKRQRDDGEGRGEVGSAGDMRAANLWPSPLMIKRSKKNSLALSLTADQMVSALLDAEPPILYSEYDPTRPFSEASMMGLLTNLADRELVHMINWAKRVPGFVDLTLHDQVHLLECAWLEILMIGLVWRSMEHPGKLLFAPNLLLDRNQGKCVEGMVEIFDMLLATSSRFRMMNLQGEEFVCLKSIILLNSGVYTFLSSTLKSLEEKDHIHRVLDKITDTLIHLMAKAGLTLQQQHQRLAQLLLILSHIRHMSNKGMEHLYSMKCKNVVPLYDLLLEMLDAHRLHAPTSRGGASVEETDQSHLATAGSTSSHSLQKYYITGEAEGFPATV

[14] = Terminal half life in Han-Wistar rat at 0.9 mg/kg, iv; format: ADME, organism-based; details: in vivo, read-out: beta t1/2 (converted)
Rattus norvegicus [15] = experiment: Antiinflammatory activity in streptococcal cell wall reactivation Lewis rat model assessed as reduction of joint swelling at 20 mg/kg administered once daily for 8 days by oral gavage starting 1 day prior to streptococcal cell wall challenge measured during 6 days post challenge relative to control; format: functional; design: scale not given: the % may be the effect or the level left
Glucocorticoid receptor [16] = biological target: T3, Glucocorticoid receptor; experiment: Transactivation of GR in cryopreserved human primary hepatocytes assessed as upregulation of TAT mRNA expression level up to 1 uM after 18 hrs by RT-qPCR analysis
Glucocorticoid receptor [17] = biological target: T3, Glucocorticoid receptor
Description: (§1) Transrepression of GR in human whole blood assessed as inhibition of LPS-induced TNF-alpha release preincubated for 45 mins followed by LPS addition after 18 hrs by AlphaLISA method

[18] = biological target: T2, Glucocorticoid receptor (Homo sapiens); remark: listed apart in the source
Description: as §1

Glucocorticoid receptor [19] = biological target: T3, Glucocorticoid receptor; remark: listed apart in the source
Description: Transrepression activity at glucocorticoid receptor (unknown origin) expressed in human ChaGoK1 cells assessed as inhibition of PMA-stimulated gene expression incubated for 24 hrs by beta-galactosidase reporter gene assay

Glucocorticoid receptor [20] = biological target: T3, Glucocorticoid receptor; details: blood
Description: Therapeutic index, ratio of fIC20 for transrepression of GR in cryopreserved human fetal osteoblasts assessed as inhibition of OPG mRNA expression to fIC30 for transrepression of GR in human whole blood assessed as inhibition of LPS-induced TNF-alpha release

Glucocorticoid receptor [21] = biological target: T3, Glucocorticoid receptor; experiment: Antagonist activity at glucocorticoid receptor (unknown origin) expressed in human ChaGoK1 cells assessed as inhibition of dexamethasone induced transactivation incubated for 24 hrs by beta-galactosidase reporter gene assay; format: cell-based
Hepatocyte = experiment: Stability in rat hepatocytes; format: ADME, cell-based
Glucocorticoid receptor [22] = biological target: T3, Glucocorticoid receptor; experiment: Displacement of fluormone RED from human full length glucocorticoid receptor after 4 hrs by fluorescence polarization assay
Glucocorticoid receptor [23] = biological target: T3, Glucocorticoid receptor; remark: listed apart in the source
Description: Transactivation activity at glucocorticoid receptor (unknown origin) expressed in human ChaGoK1 cells incubated for 24 hrs by beta-galactosidase reporter gene assay

[24] = Drug metabolism in human hepatocytes assessed as N-((1R,2S)-1-(3-chloro-4-cyanophenoxy)-1-(6-hydroxypyridin-3-yl)propan-2-yl)-2,2-difluoropropanamide formation; format: ADME, cell-based, Hepatocyte
[25] = Drug metabolism in rat hepatocytes assessed as N-((1R,2S)-1-(3-chloro-4-cyanophenoxy)-1-(6-hydroxypyridin-3-yl)propan-2-yl)-2,2-difluoropropanamide formation; format: ADME, cell-based, Hepatocyte

Drug metabolism [1]: Metabolite_Detected | Drug metabolism [2]: Metabolite_Detected
Structure (SMILES): C[C@H](NC(=O)C(C)(F)F)[C@H](Oc1ccc(C#N)c(Cl)c1)c1ccc(O)nc1

AUC/dose (Rattus norvegicus [4]): 0.094 µM·h | half-life [5]: 150 min | Tmax [6]: 16.8 min | Vd [7]: 1.2 L/kg | IC50 [8]: 0.011 µM | solubility [9]: 310 µM (≈ 112 µg/mL) | clearance [10]: 5.4 L/h/kg | IC50 (Estrogen receptor beta): > 100 µM | fIC20 [11]: 0.88 nM | Cmax/dose (Rattus norvegicus [12]): 0.1 µM | fEC50 (Glucocorticoid receptor [13]): 24 nM | IC50 (Estrogen receptor): > 100 µM | half-life [14]: 24 min
Structure (SMILES): C[C@]12C=CC(=O)C=C1CC[C@@H]1[C@@H]2[C@@H](O)C[C@@]2(C)[C@H]1CC[C@]2(O)C(=O)CO [PREDNISOLONE]
Activity (Rattus norvegicus [3]): 59% | Activity (Rattus norvegicus [15]): 73%

Activity (Glucocorticoid receptor [16]): Not Active | IC50 (Glucocorticoid receptor [17]): 0.18 µM | solubility [9]: 0.9 µM (≈ 0.484 µg/mL) | fIC30 [18]: 0.53 nM | IC50 (Glucocorticoid receptor [19]): 0.0016 µM | fIC20 [11]: 0.04 nM | TI (Glucocorticoid receptor [20]): 0.076 | IC50 (Glucocorticoid receptor [21]): 0.27 µM | Stability (Hepatocyte): Stable | IC50 (Glucocorticoid receptor [22]): 0.016 µM | EC50 (Glucocorticoid receptor [23]): 0.0035 µM
Structure (SMILES): Cc1nnc(C(=O)N[C@@H](C(C)O)[C@H](Oc2ccc3c(cnn3-c3ccc(F)cc3)c2)c2cc(F)cc(F)c2)o1 (single isomer, unassigned)

solubility [9]: 100 µM (≈ 41 µg/mL) | Drug metabolism [24]: Metabolite_Detected | IC50 (Glucocorticoid receptor [19]): 0.0093 µM | IC50 (Glucocorticoid receptor [22]): < 0.004 µM | Drug metabolism [25]: Metabolite_Detected | EC50 (Glucocorticoid receptor [23]): 0.033 µM
Structure (SMILES): COc1ccc([C@@H](Oc2ccc(C#N)c(Cl)c2)[C@H](C)NC(=O)C(C)(F)F)cn1
